Assay results taken from US5081121A, “4(1H)-quinolone derivatives” (priority 1988, dated 1992).

Key:
right atrial muscle = assay: Test Method 1: enhancing rate of the pulsation of the right atrial muscle extirpated from a guinea pig; format: cell-based; details: for enhancing rate of the pulsation of the right atrial muscle (in parentheses under EC20) / enhancing rate of the pulsation of the right atrial muscle (in parentheses under EC50) / enhancing rate of the pulsation of the right atrial muscle (in parentheses under EC100): minus values: pulsation is decreased
Protocol: (§1) The drug according to the present invention was evaluated with reference to the physiological activities by means of a method using an atrial muscle extirpated from a guinea pig.
(§2) Male guinea pigs having a body weight of 300-500 g were made swooned by striking his head and were bleeded to death. The heart was extirpated and the right and left atrial muscles were cut off. The tops of each atrial muscle were fixed with cerrefines. The muscle was suspended into an organ-bath in which a Krebs-Henseleit solution (at 32° C.) was filled, and a 95% O2 -5% CO2 gas was flown through the bath. The left atrial muscle was stimulated electrically at a frequency of 1 Hz to stabilize the contracting force of the left atrial muscle. Then, the compounds according to the present invention represented by the general formulae were added to the organ-bath. As for the right atrial muscle, after the pulsation was stabilized, the compounds according to the present invention were added in the organ-bath in the same manner as described above.
(§3) The compounds according to the present invention represented by the aforementioned general formulae enhanced the left atrial muscle contracting force dependent on their concentrations. The drug concentrations for enhancing the left atrial muscle contracting force to the levels of 20%, 50% and 100%, respectively are listed in Table 2. EC20, EC50 and EC100 indicate the molar concentration for enhancing the left atrial muscle contracting force to the levels of 20%, 50% and 100%, respectively. The enhancing rates of the pulsation of the right atrial muscle are also listed within parentheses. The minus values in parentheses indicate that the pulsation of the right atrial muscle is decreased.
(§4) As a control drug, theophylline ([…].

left atrial muscle = assay: Test Method 1: enhancement of contracting force of left atrial muscle extirpated from a guinea pig (electrically stimulated at 1 Hz); format: cell-based; details: Cavia porcellus, Krebs-Henseleit solution 32° C.; for EC20: read-out: EC20 (molar concentration for enhancing the left atrial muscle contracting force to the level of 20%); for EC50: read-out: EC50 (molar concentration for enhancing the left atrial muscle contracting force to the level of 50%); for EC100: read-out: EC100 (molar concentration for enhancing the left atrial muscle contracting force to the level of 100%)
Protocol: as §1, §2, §3, §4

heart muscle = assay: Test Method 2: effect on heart muscle contracting force in an anesthetized dog (LV-dP/dtmax); format: in vivo; details: anesthetized Beagle dogs, 1 mg/kg through a cannula inserted into vein; increasing rate, value at initiation set as 100%
Protocol: The compounds according to the present invention was evaluated with reference to the effect on heart muscle contracting force by means of a method using an anesthetized dog.
Beagle dogs having a body weight of 8-11 kg were used for the experiment. They were anesthetized by intraperitoneal administration of a sodium salt of pentobarbital (35 mg/kg) and, if necessary, of additional small amount of the sodium salt of pentobarbital. Anesthesia was maintained by administering the sodium salt of pentobarbital in a dose of 5 mg/kg/hour through a cannula inserted within a vein. Breathing was performed through a cannula inserted within a trachea with a respirator. The maximum accelerations of contracting the […] (LV-dp/dtmax) were measured with a pressure transducer inserted into the left ventricle. Compounds tested was administered in a dose of 1 mg/kg through a cannula inserted into the other vein. The parameters were expressed as the increasing rate (Δ%) after dosing of the drug with the value at the initiation when the drug was administered being set as 100%.

| Structure (SMILES) | enhancing rate of the pulsation of the right atrial muscle (in parentheses under EC20) (right atrial muscle) [%] | enhancing rate of the pulsation of the right atrial muscle (in parentheses under EC50) (right atrial muscle) [%] | EC20 (left atrial muscle) [µM] | EC50 (left atrial muscle) [µM] | ΔLV-dP/dtmax (%) (heart muscle) | enhancing rate of the pulsation of the right atrial muscle (in parentheses under EC100) (right atrial muscle) [%] | EC100 (left atrial muscle) [µM] | effect on heart rate (in words) (right atrial muscle; from the results of Table 2) |
| --- | --- | --- | --- | --- | --- | --- | --- | --- |
| CCOC(=O)c1cn(CC)c2ccc(CC)cc2c1=O [Compound 85, 1,6-diethyl-3-ethoxycarbonyl-4(1H)-quinolone] | -1.2 | -0.8 | 1.58 | 9.77 | 25.0 | – | – | – |
| COc1cc2c(=O)cc[nH]c2cc1OC(C)C [Compound 51, 7-i-propoxy-6-methoxy-4(1H)-quinolone] | 6.2 | 16.8 | 20 | 70.8 | 41.2 | 16.5 | 1000 | – |
| CCOc1cc2c(cc1OC)c(=O)cc(-c1cccnc1)n2CC [Compound 114, 7-ethoxy-1-ethyl-6-methoxy-2-(3-pyridyl)-4(1H)-quinolone] | -1.8 | -4.0 | 6.46 | 53.1 | – | -1.3 | 1000 | – |
| CCOc1cc2c(cc1OC)c(=O)cc(-c1cccs1)n2CC [Compound 102, 7-ethoxy-1-ethyl-6-methoxy-2-(2-thienyl)-4(1H)-quinolone] | -0.2 | -5.2 | 2.51 | 40.3 | – | – | – | – |
| O=c1cc(-c2cccs2)[nH]c2ccccc12 [Compound 100, 2-(2-thienyl)-4(1H)-quinolone] | 1.8 | 3.5 | 5.43 | 18.8 | – | – | – | – |
| CCCCOc1cc2[nH]ccc(=O)c2cc1OC [Compound 52, 7-n-butoxy-6-methoxy-4(1H)-quinolone] | -1.0 | -1.2 | 37.6 | 115 | – | -20.0 | 422 | – |
| COc1cc2c(=O)ccn(C)c2cc1OC [Compound 13, 6,7-dimethoxy-1-methyl-4(1H)-quinolone] | 0.1 | 1.2 | 12.5 | 88.1 | – | 4.0 | 447 | – |
| COc1ccc2[nH]ccc(=O)c2c1OCc1ccccc1 [Compound 4, 5-benzyloxy-6-methoxy-4(1H)-quinolone] | 0.7 | – | 1000 | – | – | – | – | – |
| CCOc1cc2c(=O)c(C(=O)O)cn(CC)c2cc1OC [Compound 86, 3-carboxyl-6-ethoxy-1-ethyl-7-methoxy-4(1H)-quinolone] | 1.5 | 8.5 | 30 | 125 | – | – | – | – |
| CCN(CC)c1cc(C)c2[nH]ccc(=O)c2c1 [Compound 9, 6-diethylamino-8-methyl-4(1H)-quinolone] | 8.2 | 15.3 | 40.7 | 87.1 | – | 18.0 | 299 | – |
| COc1cc2[nH]c(C3CC3)cc(=O)c2cc1OC [Compound 95, 2-cyclopropyl-6,7-dimethoxy-4(1H)-quinolone] | 2.8 | 16.3 | 1.78 | 18.2 | 46.9 | – | 94.4 | – |
| COc1cccc2c(=O)c(C(=O)N3CCN(Cc4ccc5c(c4)OCO5)CC3)cn(C)c12 [Compound 107, 8-methoxy-1-methyl-3-{1-[4-(3,4-methylenedioxybenzyl)-piperazinyl]carbonyl}-4(1H)-quinolone] | -6.6 | -19.5 | 16.2 | 100 | – | – | – | – |
| Cn1c(=O)c2[nH]cnc2n(C)c1=O [Theophylline, theophylline, reference compound] | 7.3 | 20.0 | 72.4 | 302 | 18.8 | – | – | increased significantly |
| COc1ccc(Cn2ccc(=O)c3cc(OC)c(OC)cc32)cc1 [Compound 17, 6,7-dimethoxy-1-(4-methoxybenzyl)-4(1H)-quinolone] | -2.1 | -4.0 | 4.47 | 30 | – | – | – | – |
| C=CCn1c(-c2cccs2)cc(=O)c2cc(OC)c(OCC)cc21 [Compound 116, 1-allyl-7-ethoxy-6-methoxy-2-(2-thienyl)-4(1H)-quinolone] | -10.0 | – | 15.3 | 60.3 | – | – | – | – |
| CCOc1cc2[nH]ccc(=O)c2cc1OC [Compound 62, 7-ethoxy-6-methoxy-4(1H)-quinolone] | – | – | 4.52 | 30 | 60.0 | – | 75 | – |
| CCOC(=O)c1c[nH]c2c(C)cc(N(CC)CC)cc2c1=O [Compound 84, 6-diethylamino-3-ethoxycarbonyl-8-methyl-4(1H)-quinolone] | -3.0 | -6.5 | 35.9 | 57.5 | – | -11.5 | 126 | – |
| CCOc1cc2[nH]c(C3CC3)cc(=O)c2cc1OC [Compound 98, 2-cyclopropyl-7-ethoxy-6-methoxy-4(1H)-quinolone] | – | – | 5.96 | 36.7 | 57.1 | – | – | – |
| CCOC(=O)c1c[nH]c2c(OC)cccc2c1=O [Compound 35, 3-ethoxycarbonyl-8-methoxy-4(1H)-quinolone] | -1.2 | -2.0 | 26 | 80 | – | -3.7 | 260 | – |
| COc1ccc(OC)c(/C=C/c2ccc3[nH]ccc(=O)c3c2)c1 [Compound 46, 6-[2-trans-(2,5-dimethoxyphenyl)vinyl]-4(1H)-quinolone] | -1.0 | 3.5 | 45.7 | 162 | – | – | – | – |
| CCOC(=O)c1cn(CC)c2c(C)c(C)ccc2c1=O [Compound 81, 7,8-dimethyl-3-ethoxycarbonyl-1-ethyl-4(1H)-quinolone] | -10.5 | -15.0 | 35.5 | 57.5 | – | – | – | – |
| CCOC(=O)c1c[nH]c2c(OC)ccc(-c3ccccc3)c2c1=O [Compound 37, 3-ethoxycarbonyl-8-methoxy-5-phenyl-4(1H)-quinolone] | -1.3 | -2.2 | 1.58 | 7.5 | – | -5.0 | 37.2 | – |
| COc1cc(C)c2[nH]ccc(=O)c2c1 [Compound 20, 6-methoxy-8-methyl-4(1H)-quinolone] | 0.2 | 1.8 | 12.4 | 58.9 | 41.7 | 5.6 | 299 | – |
